Results on 32 compounds are retold here after patent US9586951B2 (FUJIFILM Corporation, priority 2013, dated 2017).

SMILES strings stand for the structures. Some results are limits rather than exact numbers.

In the experiment the target is T1, ATM (Homo sapiens, UniProt Q13315).
T1 construct: detecting phosphorylation of Chk2 in a human non-small cell lung cancer cell line NCI-H460 (ATCC company); host or cells: NCI-H460 human non-small cell lung cancer cells
T1 sequence (Q13315 whole entry): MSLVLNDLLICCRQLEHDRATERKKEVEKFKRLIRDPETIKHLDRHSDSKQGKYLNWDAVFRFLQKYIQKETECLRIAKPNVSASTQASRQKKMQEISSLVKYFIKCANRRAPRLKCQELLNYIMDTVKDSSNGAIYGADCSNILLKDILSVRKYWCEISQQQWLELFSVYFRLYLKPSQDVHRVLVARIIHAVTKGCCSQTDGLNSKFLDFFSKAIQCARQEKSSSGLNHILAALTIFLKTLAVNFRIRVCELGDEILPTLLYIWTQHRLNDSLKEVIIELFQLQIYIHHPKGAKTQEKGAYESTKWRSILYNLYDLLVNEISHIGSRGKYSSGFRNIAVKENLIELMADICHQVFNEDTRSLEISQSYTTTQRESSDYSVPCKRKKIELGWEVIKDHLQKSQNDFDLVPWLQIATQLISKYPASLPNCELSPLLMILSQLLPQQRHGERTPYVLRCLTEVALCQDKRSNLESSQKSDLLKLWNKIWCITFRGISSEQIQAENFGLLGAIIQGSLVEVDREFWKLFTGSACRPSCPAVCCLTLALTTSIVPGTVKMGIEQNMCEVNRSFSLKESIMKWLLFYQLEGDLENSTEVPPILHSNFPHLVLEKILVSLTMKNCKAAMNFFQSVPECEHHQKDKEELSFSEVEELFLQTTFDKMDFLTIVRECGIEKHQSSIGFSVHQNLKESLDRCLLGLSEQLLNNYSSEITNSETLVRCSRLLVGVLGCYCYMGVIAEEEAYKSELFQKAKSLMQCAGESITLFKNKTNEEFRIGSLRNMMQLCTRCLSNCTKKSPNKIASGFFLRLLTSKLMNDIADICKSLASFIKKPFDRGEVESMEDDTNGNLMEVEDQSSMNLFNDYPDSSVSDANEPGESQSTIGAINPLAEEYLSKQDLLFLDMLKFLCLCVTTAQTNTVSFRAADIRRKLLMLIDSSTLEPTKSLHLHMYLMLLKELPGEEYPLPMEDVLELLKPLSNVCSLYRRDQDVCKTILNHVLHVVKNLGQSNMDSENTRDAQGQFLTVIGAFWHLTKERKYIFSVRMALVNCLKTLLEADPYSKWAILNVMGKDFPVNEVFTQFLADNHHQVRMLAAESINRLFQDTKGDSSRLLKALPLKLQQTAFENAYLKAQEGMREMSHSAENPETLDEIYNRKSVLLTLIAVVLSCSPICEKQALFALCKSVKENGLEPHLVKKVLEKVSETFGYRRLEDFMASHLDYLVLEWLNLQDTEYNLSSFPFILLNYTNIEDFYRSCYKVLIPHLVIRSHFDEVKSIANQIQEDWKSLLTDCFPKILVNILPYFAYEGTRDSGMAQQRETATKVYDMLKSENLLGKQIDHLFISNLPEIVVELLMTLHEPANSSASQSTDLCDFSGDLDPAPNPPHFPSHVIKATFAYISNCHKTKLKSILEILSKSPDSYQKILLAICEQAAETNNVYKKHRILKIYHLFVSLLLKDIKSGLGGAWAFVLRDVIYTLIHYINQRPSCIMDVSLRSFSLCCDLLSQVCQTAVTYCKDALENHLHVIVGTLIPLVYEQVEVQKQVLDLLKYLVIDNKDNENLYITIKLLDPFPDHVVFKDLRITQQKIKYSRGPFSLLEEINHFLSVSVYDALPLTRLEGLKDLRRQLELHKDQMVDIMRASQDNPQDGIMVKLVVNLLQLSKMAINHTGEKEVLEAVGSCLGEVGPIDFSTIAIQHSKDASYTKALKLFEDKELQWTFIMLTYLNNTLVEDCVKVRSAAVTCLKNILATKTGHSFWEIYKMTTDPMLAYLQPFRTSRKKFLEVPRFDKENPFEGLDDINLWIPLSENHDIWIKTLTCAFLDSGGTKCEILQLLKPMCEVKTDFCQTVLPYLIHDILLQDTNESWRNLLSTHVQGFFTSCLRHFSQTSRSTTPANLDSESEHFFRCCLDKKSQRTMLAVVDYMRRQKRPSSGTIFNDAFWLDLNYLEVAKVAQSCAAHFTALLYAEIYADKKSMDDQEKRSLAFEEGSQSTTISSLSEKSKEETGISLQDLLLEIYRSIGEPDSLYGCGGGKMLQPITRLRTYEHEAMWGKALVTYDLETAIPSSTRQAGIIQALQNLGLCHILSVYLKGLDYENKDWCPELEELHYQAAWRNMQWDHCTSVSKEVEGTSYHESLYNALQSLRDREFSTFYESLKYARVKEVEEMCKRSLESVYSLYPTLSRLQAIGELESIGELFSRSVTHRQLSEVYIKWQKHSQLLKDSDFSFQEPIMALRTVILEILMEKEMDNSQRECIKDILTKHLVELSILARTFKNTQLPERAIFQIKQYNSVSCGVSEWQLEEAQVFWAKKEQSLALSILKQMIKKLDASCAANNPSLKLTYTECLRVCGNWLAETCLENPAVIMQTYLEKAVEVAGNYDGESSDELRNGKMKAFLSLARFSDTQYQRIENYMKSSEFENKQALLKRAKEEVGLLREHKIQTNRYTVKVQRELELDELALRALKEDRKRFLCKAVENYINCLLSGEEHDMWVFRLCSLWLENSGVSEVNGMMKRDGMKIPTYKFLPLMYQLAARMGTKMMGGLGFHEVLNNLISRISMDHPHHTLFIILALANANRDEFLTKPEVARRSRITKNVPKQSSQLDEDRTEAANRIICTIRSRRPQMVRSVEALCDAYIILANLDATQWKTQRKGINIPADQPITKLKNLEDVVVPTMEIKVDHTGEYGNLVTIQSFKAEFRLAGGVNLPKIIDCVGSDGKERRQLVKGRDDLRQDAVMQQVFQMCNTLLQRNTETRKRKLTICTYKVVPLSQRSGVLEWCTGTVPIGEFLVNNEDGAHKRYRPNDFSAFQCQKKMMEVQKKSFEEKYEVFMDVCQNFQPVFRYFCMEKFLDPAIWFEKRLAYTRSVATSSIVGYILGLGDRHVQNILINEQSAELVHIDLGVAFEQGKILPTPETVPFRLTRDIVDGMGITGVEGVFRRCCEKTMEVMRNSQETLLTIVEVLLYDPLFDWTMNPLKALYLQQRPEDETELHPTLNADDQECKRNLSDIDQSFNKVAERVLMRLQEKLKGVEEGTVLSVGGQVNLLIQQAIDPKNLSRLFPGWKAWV
Description: ATM inhibition test (phosphorylation of Chk2 generated by ionizing radiation, AlphaScreen SureFire). The format is cell-based. The following applies: phosphorylated Chk2 in NCI-H460 cells, ionizing radiation 8Gy, 1 hour after test compound treatment; read-out: ATM inhibitory activity. An outline of the steps: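 NCI-H460 cells treated with compound for 1 hour, then irradiated with 8Gy and incubated 1 hour at 37° C. Phospho-Chk2 measured by AlphaScreen SureFire. Inhibition ratio calculated relative to untreated irradiated and non-irradiated wells.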
(In Alpha technology, singlet oxygen from a donor bead excites a nearby acceptor bead.)
In the case of `CC(Nc1ccc2c(c1)Cc1cccc(-c3cc(N4CCOCC4)cc(=O)[nH]3)c1O2)c1cncc(F)c1` (centres unmarked) [Example 2-14-29, 6-(7-((1-(5-Fluoropyridin-3-yl)ethyl)amino)-9H-xanthan-4-yl)-4-morpholino pyridin-2(1H)-one], the IC50 was 100 to 500 nM.

`CN(C)CC(=O)Nc1ccc2c(c1)Sc1cccc(-c3cc(N4CCOCC4)cc(=O)[nH]3)c1S2` [Example 1-7-1, 2-(dimethylamino)-N-(6-(4-morpholino-6-oxo-1,6-dihydropyridin-2-yl)thianthren-2-yl)acetamide]: the IC50 lay within 500 to 2000 nM.

In the case of `COc1cccnc1CNc1ccc2c(c1)Cc1ccnc(-c3cc(N4CCOCC4)cc(=O)[nH]3)c1O2` [Example 2-41-12, 6-(7-(((3-Methoxypyridin-2-yl)methyl)amino)-5H-chromeno [2,3-c]pyridin-1-yl)-4-morpholino pyridin-2(1H)-one], the IC50 lay in the range of 500 to 2000 nM.

Turning to `COc1cncc(CNc2ccc3c(c2)Cc2cccc(-c4cc(N5CCOCC5)cc(=O)[nH]4)c2O3)c1` [Example 2-3-8, 6-(7-(((5-Methoxypyridin-3-yl)methyl)amino)-9H-xanthen-4-yl)-4-morpholino pyridin-2(1H)-one], the IC50 lay within 100 to 500 nM.

For the compound `Cc1ccc(C(Nc2ccc3c(c2)Sc2cccc(-c4cc(N5CCOCC5)cc(=O)[nH]4)c2S3)[C@H]2CCCN2C)nc1` (single isomer, unassigned) [Example 1-56-4], the IC50 was 100 to 500 nM.

Take `Cc1ccc(C2(Nc3ccc4c(c3)Sc3cccc(-c5cc(N6CCOCC6)cc(=O)[nH]5)c3S4)CCC2)nc1` [Example 1-50-3, 6-(7-((1-(5-Methylpyridin-2-yl)cyclobutyl)amino)thianthren-1-yl)-4-morpholino pyridin-2(1H)-one]: the IC50 is 100 to 500 nM.

Turning to `O=c1cc(N2CCOCC2)cc(-c2cccc3c2Sc2ccc(NC4CCCN(Cc5ccccn5)C4)cc2S3)[nH]1` (centres unmarked) [Example 1-24-3, 4-Morpholino-6-(7-((1-(pyridin-2-ylmethyl)piperidin-3-yl)amino)thianthren-1-yl)pyridin-2 (1H)-one], the IC50 lay within 100 to 500 nM.

In the case of `COc1cc(CNc2ccc3c(c2)Sc2cccc(-c4cc(N5CCOCC5)cc(=O)[nH]4)c2O3)ccn1` [Example 4-8-4, 6-(8-(((2-Methoxypyridin-4-yl)methyl)amino)phenoxathiin-4-yl)-4-morpholino pyridin-2(1H)-one], the IC50 was in the range of 100 to 500 nM.

Consider `Cc1ccc(C(Nc2ccc3c(c2)Sc2cccc(-c4cc(N5CCOCC5)cc(=O)[nH]4)c2S3)C2CN(C)C2)nc1` (centres unmarked) [Example 1-22-8, 6-(7-(((1-Methylazetidin-3-yl)(5-methylpyridin-2-yl)methyl)amino)thianthren-1-yl)-4-morpholino pyridin-2 (1H)-one], for which the IC50 lay in the range of 100 to 500 nM.

With `CCCCN1CCC(Nc2ccc3c(c2)Cc2cccc(-c4cc(N5CCOCC5)cc(=O)[nH]4)c2O3)CC1` [Example 2-28-33, 6-(7-((1-Butylpiperidin-4-yl)amino)-9H-xanthen-4-yl)-4-morpholino pyridin-2 (1H)-one], the IC50 was in the range of 100 to 500 nM.

Turning to `Cc1ccc(C(CC2CCCCC2)Nc2ccc3c(c2)Sc2cccc(-c4cc(N5CCOCC5)cc(=O)[nH]4)c2S3)nc1` (centres unmarked) [Example 1-12-129, 6-(7-((2-Cyclohexyl-1-(5-methylpyridin-2-yl)ethyl)amino)thianthren-1-yl)-4-morpholino pyridin-2(1H) one], the IC50 lay within 500 to 2000 nM.

Consider `COc1cccc(CNc2ccc3c(c2)Cc2ccnc(-c4cc(N5CCOCC5)cc(=O)[nH]4)c2O3)n1` [Example 2-42-7, 6-(7-(((6-Methoxypyridin-2-yl)methyl)amino)-5H-chromeno[2,3-c]pyridin-1-yl)-4-morpholinopyridin-2(1H)-one], for which the IC50 fell in the range of 500 to 2000 nM.

As for `O=c1cc(N2CCOCC2)cc(-c2cccc3c2Oc2ccc(N[C@H]4CCN(Cc5ccccc5)C[C@@H]4O)cc2C3)[nH]1` (relative stereo) [Example 2-33, 6-(7-((trans-1-benzyl-3-hydroxypiperidin-4-yl)amino)-9H-xanthen-4-yl)-4-morpholinopyridin-2(1H)-one], the IC50 was in the range of 100 to 500 nM.

Regarding `O=c1cc(N2CCOCC2)cc(-c2cccc3c2Oc2ccc(NCc4ccoc4)cc2C3)[nH]1` [Example 2-14-34, 6-(7-((Furan-3-ylmethyl)amino)-9H-xanthen-4-yl)-4-morpholino pyridin-2(1H)-one], the IC50 was 100 to 500 nM.

Consider `CNc1ccc(CNc2ccc3c(c2)Sc2cccc(-c4cc(N5CCOCC5)cc(=O)[nH]4)c2S3)cn1` [Example 1-12-8, 6-(7-(((6-(Methylamino)pyridin-3-yl)methyl)amino)thianthren-1-yl)-4-morpholino pyridin-2(1H)-one], for which the IC50 was in the range of 100 to 500 nM.

For the compound `COc1nccc(C(C)Nc2ccc3c(c2)Sc2cccc(-c4cc(N5CCOCC5)cc(=O)[nH]4)c2S3)n1` (centres unmarked) [Example 1-12-88, 6-(7-((1-(2-Methoxypyrimidin-4-yl)ethyl)amino)thianthren-1-yl)-4-morpholino pyridin-2(1H)-one], the IC50 was 100 to 500 nM.

`O=c1cc(N2CCOCC2)cc(-c2cccc3c2Sc2ccc(NC4CCCN(C5CCOC5)C4)cc2S3)[nH]1` (centres unmarked) [Example 1-24-8, 4-Morpholino-6-(7-((1-(tetrahydrofuran-3-yl)piperidin-3-yl)amino)thianthren-1-yl)pyridin-2 (1H)-one]: the IC50 lay within 100 to 500 nM.

Turning to `O=C(CNc1ccc2c(c1)Sc1cccc(-c3cc(N4CCOCC4)cc(=O)[nH]3)c1S2)N1CCCCC1` [Example 1-18-2], the IC50 was 100 to 500 nM.

For the compound `CNc1ncccc1CNc1ccc2c(c1)Sc1cccc(-c3cc(N4CCOCC4)cc(=O)[nH]3)c1S2` [Example 1-12-24, 6-(7-(((2-(Methylamino)pyridin-3-yl)methyl)amino)thianthren-1-yl)-4-morpholino pyridin-2(1H)-one], the IC50 lay within 100 to 500 nM.

As to `O=c1cc(N2CCOCC2)cc(-c2cccc3c2Oc2ccc(NC4CCN(Cc5ccccc5)CC4)cc2C3)[nH]1` [Example 2-28-24, 6-(7-((1-Benzylpiperidin-4-yl)amino)-9H-xanthen-4-yl)-4-morpholino pyridin-2 (1H)-one], the IC50 lay within 100 to 500 nM.

On to `Cc1cnc(C(CCN(C)C)Nc2ccc3c(c2)Cc2cccc(-c4cc(=O)cc(N5CCOCC5)o4)c2O3)cn1` (single isomer, unassigned) [Example 12-6, 2-(7-((3-(Dimethylamino)-1-(5-methylpyrazine-2-yl)propyl)amino)-9H-xanthen-4-yl)-6-morpholino-4H-pyran-4-one], for which the IC50 lay within 100 to 500 nM.

For the compound `CN(C)C1CCC(Nc2ccc3c(c2)Sc2cccc(-c4cc(N5CCOCC5)cc(=O)[nH]4)c2S3)CC1` (centres unmarked) [Example 1-36-2, 6-(7-((4-(Dimethylamino)cyclohexyl)amino)thianthren-1-yl)-4-morpholinopyridin-2(1H)-one], the IC50 was 100 to 500 nM.

Regarding `CCCC(Nc1ccc2c(c1)Sc1cccc(-c3cc(N4CCOCC4)cc(=O)[nH]3)c1S2)[C@H](C)N` (stereo partly drawn) [Example 1-20-2, 6-(7-(((2S)-2-Aminohexan-3-yl)amino)thianthren-1-yl)-4-morpholino pyridin-2(1H)-one], the IC50 is 100 to 500 nM.

Consider `O=c1cc(N2CCOCC2)cc(-c2cccc3c2Oc2ccc(NC4CCN(c5ccccn5)CC4)cc2C3)[nH]1` [Example 2-2-27, 4-Morpholino-6-(7-((1-(pyridin-2-yl)piperidin-4-yl)amino)-9H-xanthen-4-yl) pyridin-2(1H)-one], for which the IC50 fell in the range of 100 to 500 nM.

For `O=c1cc(N2CCOCC2)cc(-c2cccc3c2Oc2ccc(NC4CCN(Cc5ccc(OC6CCOCC6)nc5)CC4)cc2C3)[nH]1` [Example 2-28-21, 4-Morpholino-6-(7-((1-((6-((tetrahydro-2H-pyran-4-yl)oxy)pyridin-3-yl)methyl)piperidin-4-yl)amino)-9H-xanthen-4-yl)pyridin-2(1H)-one], the IC50 was 100 to 500 nM.

Take `CC(Nc1ccc2c(c1)Cc1cccc(-c3cc(N4CCOCC4)cc(=O)[nH]3)c1O2)c1ncc(CN2CCOCC2)cn1` (centres unmarked) [Example 2-14-67, 4-Morpholino-6-(7-((1-(5-(morpholinomethyl)pyrimidin-2-yl)ethyl)amino)-9H-xanthen-4-yl)pyridin-2 (1H)-one]: the IC50 lay within 500 to 2000 nM.

Turning to `COCCNCCC(Nc1ccc2c(c1)Sc1cccc(-c3cc(N4CCOCC4)cc(=O)[nH]3)c1S2)c1cccc(C)n1` (centres unmarked) [Example 1-20-10, 6-(7-((3-((2-Methoxyethyl)amino)-1-(6-methylpyridin-2-yl)propyl)amino)thianthren-1-yl)-4-morpholino pyridin-2 (1H)-one], the IC50 lay in the range of 100 to 500 nM.

Turning to `Nc1ncccc1CNc1ccc2c(c1)Sc1cccc(-c3cc(N4CCOCC4)cc(=O)[nH]3)c1O2` [Example 4-8-20, 6-(8-(((2-Aminopyridin-3-yl)methyl)amino)phenoxathiin-4-yl)-4-morpholino pyridin-2(1H)-one], the IC50 lay within 500 to 2000 nM.

With `COc1ccnc(C(C)Nc2ccc3c(c2)Cc2cccc(-c4cc(N5CCOCC5)cc(=O)[nH]4)c2O3)n1` (centres unmarked) [Example 2-14-56, 6-(7-((1-(4-Methoxypyrimidin-2-yl)ethyl)amino)-9H-xanthen-4-yl)-4-morpholino pyridin-2(1H)-one], the IC50 lay within 100 to 500 nM.

Consider `Cc1ccc(C(C[C@@H]2CCCN2)Nc2ccc3c(c2)Sc2cccc(-c4cc(N5CCOCC5)cc(=O)[nH]4)c2S3)nc1` (single isomer, unassigned) [Example 12-1], for which the IC50 was 100 to 500 nM.

As for `Cc1ccc(C(CCN2CCOCC2)Nc2ccc3c(c2)Sc2cccc(-c4cc(N5CCOCC5)cc(=O)[nH]4)c2S3)nc1` (single isomer, unassigned) [Example 1-51-7, 6-(7-((1-(5-Methylpyridin-2-yl)-3-morpholinopropyl)amino)thianthren-1-yl)-4-morpholino pyridin-2(1H)-one], the IC50 is below 100 nM.

Regarding `COCCN1CCCC(Nc2ccc3c(c2)Sc2cccc(-c4cc(N5CCOCC5)cc(=O)[nH]4)c2S3)C1` (centres unmarked) [Example 1-26-2, 6-(7-((1-(2-Methoxyethyl)piperidin-3-yl)amino)thianthren-1-yl)-4-morpholinopyridin-2(1H)-one], the IC50 is below 100 nM.
